Data on one molecule can be found in patent US6455540B1, “Methods of use of quinolone compounds against anaerobic pathogenic bacteria” (priority 1999, dated 2002).

Structures are written as SMILES. ≈ marks a conversion by molar mass, not a printed value. Like-named read-outs stand apart in the source and are kept apart here.

The subject of assay [1] is peptostreptococci. The experiment in a line: Agar dilution MIC, peptostreptococci as a group. Format: cell-based, P. asaccharolyticus, P. magnus, P. micros, P. prevotii. The settings on record: 45 strains of peptostreptococci from 4 species; read-out: concentration to which all strains were susceptible (MIC).
Assay [2] relates to Porphyromonas spp. [P. asaccharolytica, P. canoris, P. gingivalis, P. macaccae]. Kind of assay: Agar dilution MIC, Porphyromonas spp. as a group. The assay is classed as cell-based. The note with it: read-out: concentration to which all strains were susceptible (MIC).
A further assay deals with Bacteroides fragilis. The settings on record: Goldstein, et al.; cited from earlier work.
The subject of the next assay is Anaerobiospirillum spp. The experiment in a line: Agar dilution MIC. The assay is classed as cell-based.
The test system of a further assay is Gram-positive anaerobes. Kind of assay: Agar dilution activity against Gram-positive anaerobes. The assay is classed as cell-based. The settings on record: for activity compared with trovafloxacin: Gram-positive strains.
For another assay, the system named is F. ulcerans. Kind of assay: Agar dilution MIC. The settings on record: Fusobacterium ulcerans. Format: cell-based.
Another assay relates to Clostridium ramosum. The settings on record: prior study (Goldstein, et al.), 14 isolates; cited from earlier work.
For the next assay, the system named is B. thetaiotaomicron. The note with it: Goldstein, et al.; cited from earlier work.
For assay [3], the system named is peptostreptococci. The note with it: cited from earlier work.
For the next assay, the system named is Fusobacterium naviforme. The experiment in a line: Agar dilution MIC. The assay is classed as cell-based. The settings on record: read-out: concentration to which strains were susceptible (MIC).
Where [4] appears, read: Marco, et al., 18 strains of peptostreptococci.

Regarding `CO/N=C1\CN(c2nc3c(cc2F)c(=O)c(C(=O)O)cn3C2CC2)CC1CN` (racemic) [Gemifloxacin, (R,S)-7-(3-aminomethyl-4-methoxyiminopyrrolidin-1-yl)-1-cyclopropyl-6-fluoro-4-oxo-1,4-dihydro-1,8-naphthyridine-3-carboxylic acid], the MIC is at most 0.25 µg/mL in the assay on peptostreptococci [1], at most 0.25 µg/mL in assay [2] and at most 2 µg/mL in the assay with Fusobacterium naviforme. For the same molecule, the “activity” value with Bacteroides fragilis is given as “showed activity”; in the assay on Gram-positive anaerobes, “good activity”; in the assay with B. thetaiotaomicron, “only limited activity”. In addition, the MIC90 in the assay on Anaerobiospirillum spp. is at most 2 µg/mL; against F. ulcerans, at least 4 µg/mL; with Clostridium ramosum, 8 µg/mL (≈ 20.5 µM); in the assay on peptostreptococci [3] (Cormicon and Jones, 10 strains of peptostreptococci), 2 µg/mL (≈ 5.14 µM); with peptostreptococci [3] (setting [4]) it was 2 µg/mL (≈ 5.14 µM). Further, the results for the “activity compared with trovafloxacin” value in the assay on Gram-positive anaerobes and in the assay with Gram-positive anaerobes (listed as gemifloxacin) were “generally more active than trovafloxacin against Gram-positive strains by one to two dilutions” and “compared favorably with trovafloxacin”, respectively. In addition, the MIC range with peptostreptococci [3] (setting [4]) was 0.25 to 8 µg/mL.
